US20170305857A1, “N-ACYLPIPERIDINE ETHER TROPOMYOSIN-RELATED KINASE INHIBITORS” (Pfizer Limited, priority 2014, published 2017)

Molecular target: T1, recombinant His-tagged cytoplasmic domains of TRKA receptor (NTRK1, PV3144, aa 441-796) (Homo sapiens, UniProt P04629)
T1 construct: aa 441-796; His; purchased Invitrogen PV3144
Assay: Isolated TRK enzyme assay (HTRF KinEASE-TK, PV3144 TrkA enzyme assay)
Assay type: biochemical
Conditions: 4 nM enzyme, 40 uM ATP, 35 min, arithmetic mean where more than one reading
Experimental: Isolated TRK Enzyme assays use the HTRF KinEASE-TK kit (Cisbio Cat #62TK0PEJ) with recombinant His-tagged cytoplasmic domains of TRKA receptor sourced from Invitrogen (see table below). This activity-assay measures the phosphorylation of tyrosine residues within a substrate from the HTRF kit which has been validated by Cisbio for a variety of tyrosine kinases including the TRK receptors.
0.5 mM stock solutions of test compounds are prepared and serially diluted in 100% DMSO. […] Greiner low volume black plates containing 0.2 ul of serially diluted compound, standard and HPE/ZPE are created using the Bravo nanolitre dispenser.
1× enzyme buffer is prepared from 5× Enzymatic Buffer from the Cisbio KinEASE TK kit using MilliQ water. The buffer is then supplemented with 10 mM MgCl and 2 mM DTT (both from Sigma).
Following this preactivation step, 5 ul/well of enzyme+ATP mix is added using a Multidrop Micro to the assay plate, spotted with 0.2 ul 100% DMSO compound. This is left for 20 mins at room temperature before adding 5 ul of 2 uM TK-substrate-Biotin (from the Cisbio kit) diluted in 1× enzyme buffer (1 uM FAC) using the Multidrop Micro. The reaction is incubated at room temperature for the optimized assay reaction time (see table).
After the Detection Reagent addition, plates are covered and incubated at room temperature for 60 minutes. […] Test compound data are expressed as percentage inhibition defined by HPE and ZPE values for each plate. Percentage inhibition in the presence of test compound is plotted against compound concentration on a log scale to determine an IC50 from the resultant sigmoid curve.
Where more than one reading was taken, the arithmetic mean is presented.

T1 sequence (P04629 441-796): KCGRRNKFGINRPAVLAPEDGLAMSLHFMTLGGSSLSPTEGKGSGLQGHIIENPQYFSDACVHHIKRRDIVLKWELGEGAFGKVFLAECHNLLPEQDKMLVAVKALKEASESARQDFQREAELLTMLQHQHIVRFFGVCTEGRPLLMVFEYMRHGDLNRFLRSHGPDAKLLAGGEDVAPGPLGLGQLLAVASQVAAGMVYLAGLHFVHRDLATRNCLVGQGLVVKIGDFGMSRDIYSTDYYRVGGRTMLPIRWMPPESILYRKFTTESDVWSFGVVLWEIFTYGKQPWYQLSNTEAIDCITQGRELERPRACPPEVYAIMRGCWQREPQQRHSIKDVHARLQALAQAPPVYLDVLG

Compound	IC50 [nM]
NC(=O)c1cc(-c2cnn(C3CCS(=O)(=O)C3)c2)ccc1OC1CCN(C(=O)Cc2ccc(OC(F)(F)F)cc2)CC1 (racemic) [Example 14, Racemic 5-[1-(1,1-dioxidotetrahydrothiophen-3-yl)-1H-pyrazol-4-yl]-2-[(1-{[4-(trifluoromethoxy)phenyl]acetyl}piperidin-4-yl)oxy]benzamide]	2.4
NC(=O)c1cc(-c2cnn(C3CS(=O)(=O)C3)c2)cnc1O[C@H]1CCN(C(=O)Cc2ccc(OC(F)(F)F)cc2)C[C@H]1F (racemic) [Example 38, 1:1 Cis-racemic 5-[1-(1,1-dioxidothietan-3-yl)-1H-pyrazol-4-yl]-2-{[3-fluoro-1-{[4-(trifluoromethoxy)phenyl]acetyl}piperidin-4-yl]oxy}pyridine-3-carboxamide]	2
NC(=O)c1cc(-c2cnn(C3CS(=O)(=O)C3)c2)cnc1O[C@H]1CCN(C(=O)Cc2ccc(OC3CC3)cn2)C[C@H]1F (racemic) [Example 39, 1:1 Cis-racemic 2-{[1-{[5-(cyclopropyloxy)pyridin-2-yl]acetyl}-3-fluoropiperidin-4-yl]oxy}-5-[1-(1,1-dioxidothietan-3-yl)-1H-pyrazol-4-yl]pyridine-3-carboxamide]	7
Cn1cnc(-c2ccc(O[C@H]3CCN(C(=O)Cc4ccc(OC5CC5)cc4)C[C@H]3F)c(C(N)=O)c2)c1 (racemic) [Example 40, 1:1 Cis-racemic 2-{[1-{[4-(cyclopropyloxy)phenyl]acetyl}-3-fluoropiperidin-4-yl]oxy}-5-(1-methyl-1H-imidazol-4-yl)benzamide]	1
CC(C)(O)Cn1cc(-c2ccc(O[C@@H]3CCN(C(=O)Cc4ccc(OC5CC5)cn4)C[C@H]3F)c(C(N)=O)c2)cn1 (racemic) [Example 43]	6.9
Cn1cnc(-c2ccc(O[C@@H]3CCN(C(=O)Cc4ccc(OC5CC5)cc4)C[C@H]3F)c(C(N)=O)c2)c1 (racemic) [Example 44]	3.8
CC(C)(O)Cn1cc(-c2ccc(O[C@H]3CCN(C(=O)Cc4ccc(OC5CC5)cn4)C[C@H]3F)c(C(N)=O)c2)cn1 (racemic) [Example 45]	1.8
Cn1cnc(-c2ccc(OC3CCN(C(=O)Cc4ccc(OC(F)(F)F)cc4)CC3(C)C)c(C(N)=O)c2)c1 (racemic) [Example 49, Racemic 2-((3,3-dimethyl-1-(2-(4-(trifluoromethoxy)phenyl)acetyl)piperidin-4-yl)oxy)-5-(1-methyl-1H-imidazol-4-yl)benzamide]	3.7
CC1CN(C(=O)Cc2ccc(OC(F)(F)F)cc2)CCC1Oc1ccc(-c2cn(C)cn2)cc1C(N)=O (racemic) [Example 50, Racemic 2-((3-methyl-1-(2-(4-(trifluoromethoxy)phenyl)acetyl)piperidin-4-yl)oxy)-5-(1-methyl-1H-imidazol-4-yl)benzamide]	3.6
CC1CC(Oc2ccc(-c3cn(C)cn3)cc2C(N)=O)CCN1C(=O)Cc1ccc(OC(F)(F)F)cc1 (racemic) [Example 51, Racemic 2-((2-methyl-1-(2-(4-(trifluoromethoxy)phenyl)acetyl)piperidin-4-yl)oxy)-5-(1-methyl-1H-imidazol-4-yl)benzamide]	6.1
Cn1cnc(-c2ccc(O[C@@H]3CCN(C(=O)Cc4ccc(OC(F)(F)F)cc4)C[C@@H]3F)c(C(N)=O)c2)c1 (racemic) [Example 52, 1:1 racemic mixture of 2-(((3S,4R)-3-fluoro-1-(2-(4-(trifluoromethoxy)phenyl)acetyl)piperidin-4-yl)oxy)-5-(1-methyl-1H-imidazol-4-yl)benzamide + (3R,4S) enantiomer]	4.5
CC(N)c1ccc(-c2cnc(OC3CCN(C(=O)Cc4ccc(OC(F)(F)F)cc4)CC3)c(C(N)=O)c2)cc1 (racemic) [Example 94, Racemic 5-[4-(1-aminoethyl)phenyl]-2-[(1-{[4-(trifluoromethoxy)phenyl]acetyl}piperidin-4-yl)oxy]pyridine-3-carboxamide]	8.8
CC(N)c1ccc(-c2ccc(OC3CCN(C(=O)Cc4ccc(OC(F)(F)F)cc4)CC3)c(C(N)=O)c2)cc1 (racemic) [Example 103, Racemic 4′-(1-aminoethyl)-4-[(1-{[4-(trifluoromethoxy)phenyl]acetyl}piperidin-4-yl)oxy]biphenyl-3-carboxamide]	2.7
Cn1cnc(-c2ccc(O[C@H]3CCN(C(=O)Cc4ccc(OC(F)(F)F)cc4)C[C@@H]3F)c(C(N)=O)c2)c1 (single isomer, unassigned) [Example 8]	1.5
Cn1cnc(-c2ccc(O[C@@H]3CCN(C(=O)Cc4ccc(OC(F)(F)F)cc4)C[C@H]3F)c(C(N)=O)c2)c1 (single isomer, unassigned) [Example 112]	6.4
CC(N)c1ccc(-c2cnc(OC3CCN(C(=O)Cc4ccc(OC(F)(F)F)cc4)CC3)c(C(N)=O)c2)cc1 (stereo in doubt) [Example 96, 5-{4-[(1S)-1-aminoethyl]phenyl}-2-[(1-{[4-(trifluoromethoxy)phenyl]acetyl}piperidin-4-yl)oxy]pyridine-3-carboxamide]	5
NC(=O)c1cc(-c2cnn(C3CS(=O)(=O)C3)c2)ccc1O[C@@H]1CCN(C(=O)Cc2ccc(OC(F)(F)F)cc2)C[C@@H]1F [Example 1, 5-[1-(1,1-dioxidothietan-3-yl)-1H-pyrazol-4-yl]-2-{[(3S,4R)-3-fluoro-1-{[4-(trifluoromethoxy)phenyl]acetyl}piperidin-4-yl]oxy}benzamide]	0.4
Cn1cc(-c2cnc(O[C@H]3CCN(C(=O)Cc4ccc(OC(F)(F)F)cc4)C[C@H]3F)c(C(N)=O)c2)cn1 [Example 4, 2-{[(3R,4S)-3-fluoro-1-{[4-(trifluoromethoxy)phenyl]acetyl}piperidin-4-yl]oxy}-5-(1-methyl-1H-pyrazol-4-yl)pyridine-3-carboxamide]	1.2
NC(=O)c1cc(-c2cn[nH]c2)ccc1O[C@H]1CCN(C(=O)Cc2ccc(OC(F)(F)F)cc2)C[C@H]1F [Example 5, 2-{[(3R,4S)-3-fluoro-1-{[4-(trifluoromethoxy)phenyl]acetyl}piperidin-4-yl]oxy}-5-(1H-pyrazol-4-yl)benzamide]	0.9
Cn1cnc(-c2ccc(O[C@@H]3CCN(C(=O)Cc4ccc(OC(F)(F)F)cc4)C[C@@H]3F)c(C(N)=O)c2)c1 [Example 6, 2-{[(3S,4R)-3-fluoro-1-(2-(4-(trifluoromethoxy)phenyl)acetyl)piperidin-4-yl]oxy}-5-(1-methyl-1H-imidazol-4-yl)benzamide]	1.5
Cn1cnc(-c2cnc(O[C@@H]3CCN(C(=O)Cc4ccc(OC5CC5)cc4)C[C@@H]3F)c(C(N)=O)c2)c1 [Example 7, 2-{[(3S,4R)-1-{[4-(cyclopropyloxy)phenyl]acetyl}-3-fluoropiperidin-4-yl]oxy}-5-(1-methyl-1H-imidazol-4-yl)pyridine-3-carboxamide]	1.4
Cn1cc(-c2ccc(OC3CCN(C(=O)Cc4ccc(OC(F)(F)F)cn4)CC3)c(C(N)=O)c2)cn1 [Example 10, 5-(1-methyl-1H-pyrazol-4-yl)-2-[(1-{[5-(trifluoromethoxy)pyridin-2-yl]acetyl}piperidin-4-yl)oxy]benzamide]	9.9
NC(=O)c1cc(-c2cnn(C3CS(=O)(=O)C3)c2)ccc1OC1CCN(C(=O)Cc2ccc(OC(F)(F)F)cc2)CC1 [Example 13, 5-[1-(1,1-dioxidothietan-3-yl)-1H-pyrazol-4-yl]-2-[(1-{[4-(trifluoromethoxy)phenyl]acetyl}piperidin-4-yl)oxy]benzamide]	2.2
Cn1cnc(-c2ccc(OC3CCN(C(=O)Cc4ccc(OC(F)(F)F)c(Cl)c4)CC3)c(C(N)=O)c2)c1 [Example 16, 2-[(1-{[3-chloro-4-(trifluoromethoxy)phenyl]acetyl}piperidin-4-yl)oxy]-5-(1-methyl-1H-imidazol-4-yl)benzamide]	10.5
Cn1cnc(-c2ccc(OC3CCN(C(=O)Cc4ccc(OC5CC5)cc4)CC3)c(C(N)=O)c2)c1 [Example 17, 2-[(1-{[4-(cyclopropyloxy)phenyl]acetyl}piperidin-4-yl)oxy]-5-(1-methyl-1H-imidazol-4-yl)benzamide]	10.4
Cn1cc(-c2ccc(OC3CCN(C(=O)Cc4ccc(C(C)(C)C)nc4)CC3)c(C(N)=O)c2)cn1 [Example 18, 2-({1-[(6-tert-butylpyridin-3-yl)acetyl]piperidin-4-yl}oxy)-5-(1-methyl-1H-pyrazol-4-yl)benzamide]	8.9
CS(=O)(=O)Cn1cc(-c2cnc(OC3CCN(C(=O)Cc4ccc(OC(F)(F)F)cc4)CC3)c(C(N)=O)c2)cn1 [Example 20, 5-{1-[(methylsulfonyl)methyl]-1H-pyrazol-4-yl}-2-[(1-{[4-(trifluoromethoxy)phenyl]acetyl}pjperidin-4-yl)oxy]pyridine-3-carboxamide]	5.7
CS(=O)(=O)Cn1cc(-c2cnc(OC3CCN(C(=O)Cc4ccc(OC(F)(F)F)c(F)c4)CC3)c(C(N)=O)c2)cn1 [Example 21, 2-[(1-{[3-fluoro-4-(trifluoromethoxy)phenyl]acetyl}piperidin-4-yl)oxy]-5-{1-[(methylsulfonyl)methyl]-1H-pyrazol-4-yl}pyridine-3-carboxamide]	11
